Here are results for 2 compounds from paper PMC10331583, “Control of fibrosis with enhanced safety via asymmetric inhibition of prolyl‐tRNA synthetase 1” (EMBO Molecular Medicine, 2023).

One series has as its system LX2 cells. Briefly: Determination of collagen level using 3D culture (hydroxyproline). The following applies: Homo sapiens, LX-2, read-out: IC50 for collagen level. It counts as cell-based. The procedure: To screen HF derivatives, LX2 cells were resuspended with growth medium containing 20% Matrigel (BD Bioscience, 354234) and then seeded at 1 × 10^4 cells/well on a Lipidure‐coated U bottom 96‐well plate (NOF, LCU96). After 48 h, the cells were treated with TGF‐β1 (Sigma‐Aldrich, T7039) for 24 h to mimic fibrotic conditions and then additionally incubated in the presence of various concentrations of test compounds for 48 h. To determine the level of collagen, hydroxyproline levels were measured following the manufacturer's instructions (BioVision, K555‐100). Briefly, after the cells were incubated with HCl for 3 h at 120°C, the soluble supernatant was prepared using activated charcoal (Sigma‐Aldrich, 161551). The samples were dried for 3 h at 60°C and then, incubated with chloramine T mixture for 10 min and Ehrlich's reagent for 90 min at 60°C. The level of hydroxyproline was determined by measuring the absorbance at 540 nm.

On the set-up of series [1]: method as in earlier work. The following applies: healthy adults; ref ANZCTR ACTRN12619001239156; ClinicalTrials.gov NCT04767815, NCT04888715, NCT04888728; cited from earlier work.
Another series in a line: in vitro. The conditions noted are these: human, Cytotoxicity.

With `O[C@H]1CCCN[C@@H]1CCCn1cnc2c(Cl)c(Cl)ccc21` [DWN12088], the concentration for half-maximal inhibition (IC50) with LX2 cells is 43.1 nM. The “safety in phase 1 studies” value in series [1] is recorded as “validated its safety in phase 1 studies”.

On to `O=C(CC1NCCCC1O)Cn1cnc2cc(Br)c(Cl)cc2c1=O` (stereo not drawn) [HF, Halofuginone, reference compound], for which the activity at 72 h, 0.1 µM in “in vitro” (% of control (single replicates, Experiment #1-#4)) is 34.2%. In addition, in “in vitro” (% of control, average), the activity at 72 h, 0.001 µM was found to be 101%; the activity at 72 h, 0.003 µM turned out to be 107%; the activity at 72 h, 0.03 µM came to 73.6%; the activity at 72 h, 0.1 µM is 42.5%. Besides, in the series “in vitro” (% of control, average), the activity at 72 h, 1 µM is 19.4%. Also, the “TI (CC50/IC50 for collagen level)” value in the series on WI‐26 VA4 cells amounted to 3.46.
